Like-named read-outs stand apart in the source and are kept apart here.

What all share (type): binding
Test [1] concerns the target T1, HeLa cell extract proteins (Homo sapiens, UniProt P09429).
T1 construct: endogenous in cells; host or cells: HeLa cell extract
T1 sequence (P09429 1-215): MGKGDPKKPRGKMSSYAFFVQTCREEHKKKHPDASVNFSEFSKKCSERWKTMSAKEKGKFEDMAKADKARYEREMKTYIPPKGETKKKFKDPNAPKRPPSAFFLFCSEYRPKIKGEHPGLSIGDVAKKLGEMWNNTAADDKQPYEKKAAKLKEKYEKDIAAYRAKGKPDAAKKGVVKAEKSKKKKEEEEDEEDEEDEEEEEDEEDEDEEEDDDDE
As to conditions: HeLa; protein HMGB1 (HIGH MOBILITY GROUP PROTEIN B1.).

Test [2] addresses T2, HeLa cell extract proteins (Homo sapiens, UniProt P09669).
T2 construct: endogenous in cells; host or cells: HeLa cell extract
As to conditions: captured protein COX6C; HeLa.

The target in test [3] is T3, HeLa cell extract proteins (Homo sapiens, UniProt P14866).
T3 construct: endogenous in cells; host or cells: HeLa cell extract
T3 sequence (P14866 1-589): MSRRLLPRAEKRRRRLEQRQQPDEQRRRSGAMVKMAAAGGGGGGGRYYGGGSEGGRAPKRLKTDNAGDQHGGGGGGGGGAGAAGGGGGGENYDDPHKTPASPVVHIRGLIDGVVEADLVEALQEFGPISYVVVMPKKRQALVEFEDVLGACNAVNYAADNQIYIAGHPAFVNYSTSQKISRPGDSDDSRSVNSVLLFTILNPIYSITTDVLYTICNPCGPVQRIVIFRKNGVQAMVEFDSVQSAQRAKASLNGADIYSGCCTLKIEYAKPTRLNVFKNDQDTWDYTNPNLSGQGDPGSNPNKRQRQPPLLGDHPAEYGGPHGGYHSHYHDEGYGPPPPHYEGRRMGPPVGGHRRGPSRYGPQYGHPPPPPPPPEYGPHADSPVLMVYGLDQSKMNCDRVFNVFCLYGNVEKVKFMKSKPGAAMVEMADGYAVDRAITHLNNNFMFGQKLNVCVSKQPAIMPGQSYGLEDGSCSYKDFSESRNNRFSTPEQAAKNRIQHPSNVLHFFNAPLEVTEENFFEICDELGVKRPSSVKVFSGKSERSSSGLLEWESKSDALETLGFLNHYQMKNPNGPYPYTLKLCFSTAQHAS
As to conditions: protein HNRNPL; HeLa.

The target in test [4] is T4, HeLa cell extract proteins (Homo sapiens, UniProt Q09666).
T4 construct: endogenous in cells; host or cells: HeLa cell extract
The settings on record: HeLa; protein AHNAK.

Test [5] addresses T5, HeLa cell extract proteins (Homo sapiens, UniProt P05109).
T5 construct: endogenous in cells; host or cells: HeLa cell extract
T5 sequence (P05109 1-93): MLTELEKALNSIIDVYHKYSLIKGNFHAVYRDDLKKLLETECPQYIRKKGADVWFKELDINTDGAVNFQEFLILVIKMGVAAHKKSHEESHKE

The target in test [6] is T6, HeLa cell extract proteins (Homo sapiens, UniProt P51570).
T6 construct: endogenous in cells; host or cells: HeLa cell extract

In test [7] the target is T7, HeLa cell extract proteins (Homo sapiens, UniProt P69905).
T7 construct: endogenous in cells; host or cells: HeLa cell extract

Test [8] addresses T8, HeLa cell extract proteins (Homo sapiens, UniProt Q8IWA4).
T8 construct: endogenous in cells; host or cells: HeLa cell extract
T8 sequence (Q8IWA4 1-741): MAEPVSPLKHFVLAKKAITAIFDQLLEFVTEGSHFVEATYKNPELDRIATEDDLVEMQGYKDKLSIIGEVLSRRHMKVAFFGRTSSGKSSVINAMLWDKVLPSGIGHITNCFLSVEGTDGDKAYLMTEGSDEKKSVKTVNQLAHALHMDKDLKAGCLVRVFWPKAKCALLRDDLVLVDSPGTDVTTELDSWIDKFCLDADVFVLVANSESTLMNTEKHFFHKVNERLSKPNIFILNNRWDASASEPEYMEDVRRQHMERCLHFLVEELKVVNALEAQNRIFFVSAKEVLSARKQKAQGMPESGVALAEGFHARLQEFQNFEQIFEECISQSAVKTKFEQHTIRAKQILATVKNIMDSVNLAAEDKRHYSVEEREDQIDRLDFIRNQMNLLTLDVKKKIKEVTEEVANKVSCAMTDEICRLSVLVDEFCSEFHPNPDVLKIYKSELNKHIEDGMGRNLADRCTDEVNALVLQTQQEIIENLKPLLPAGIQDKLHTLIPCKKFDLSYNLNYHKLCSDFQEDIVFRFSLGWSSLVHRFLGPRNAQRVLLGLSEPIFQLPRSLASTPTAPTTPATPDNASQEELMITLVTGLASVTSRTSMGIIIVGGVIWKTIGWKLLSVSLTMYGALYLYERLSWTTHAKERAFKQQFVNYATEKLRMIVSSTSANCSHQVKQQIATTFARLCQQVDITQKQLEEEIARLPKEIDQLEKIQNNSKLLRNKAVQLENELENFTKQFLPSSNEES

Test [9] deals with T9, HeLa cell extract proteins (Homo sapiens, UniProt Q9NWZ8).
T9 construct: endogenous in cells; host or cells: HeLa cell extract
T9 sequence (Q9NWZ8 1-242): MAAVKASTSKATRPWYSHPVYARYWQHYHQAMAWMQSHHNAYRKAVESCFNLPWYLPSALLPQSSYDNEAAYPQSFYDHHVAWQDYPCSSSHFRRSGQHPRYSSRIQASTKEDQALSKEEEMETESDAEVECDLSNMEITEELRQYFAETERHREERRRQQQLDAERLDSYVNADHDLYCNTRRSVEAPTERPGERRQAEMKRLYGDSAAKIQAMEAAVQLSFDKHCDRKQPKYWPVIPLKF

For test [10], the target named is T10, HeLa cell extract proteins (Homo sapiens, UniProt Q9UBQ5).
T10 construct: endogenous in cells; host or cells: HeLa cell extract

Setting [11] is: HeLa, protein GALK1 (CDNA FLJ56840, HIGHLY SIMILAR TO GALACTOKINASE).
Where [12] appears, read: HeLa, protein HBA1 (HEMOGLOBIN SUBUNIT ALPHA).

T10 sequence (Q9UBQ5 whole entry): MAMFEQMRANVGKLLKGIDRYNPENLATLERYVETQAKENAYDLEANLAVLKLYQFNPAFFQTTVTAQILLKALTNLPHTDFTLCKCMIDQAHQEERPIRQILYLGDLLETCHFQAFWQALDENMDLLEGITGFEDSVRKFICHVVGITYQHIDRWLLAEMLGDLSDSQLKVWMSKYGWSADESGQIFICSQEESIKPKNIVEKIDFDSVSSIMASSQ
T7 sequence (P69905 whole entry): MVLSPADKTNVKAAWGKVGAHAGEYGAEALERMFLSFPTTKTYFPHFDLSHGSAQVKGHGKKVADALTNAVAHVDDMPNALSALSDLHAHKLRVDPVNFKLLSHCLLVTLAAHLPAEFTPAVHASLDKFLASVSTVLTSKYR
T6 sequence (P51570 whole entry): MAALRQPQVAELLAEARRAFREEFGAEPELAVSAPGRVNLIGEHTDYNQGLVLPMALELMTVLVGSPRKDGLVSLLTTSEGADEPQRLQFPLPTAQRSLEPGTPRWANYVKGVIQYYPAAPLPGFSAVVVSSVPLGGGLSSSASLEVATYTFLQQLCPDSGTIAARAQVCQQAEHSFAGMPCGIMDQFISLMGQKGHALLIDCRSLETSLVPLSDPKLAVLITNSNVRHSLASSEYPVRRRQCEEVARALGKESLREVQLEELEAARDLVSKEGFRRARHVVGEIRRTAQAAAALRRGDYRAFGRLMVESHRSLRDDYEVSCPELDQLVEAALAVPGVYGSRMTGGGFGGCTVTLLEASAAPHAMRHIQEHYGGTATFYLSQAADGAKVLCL
T2 sequence (P09669 whole entry): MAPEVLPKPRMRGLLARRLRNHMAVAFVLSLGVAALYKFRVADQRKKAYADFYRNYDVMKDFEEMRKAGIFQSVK

In the case of `CCCCCCOc1cccc(Cc2cnc(N)nc2N)c1` [compound 2], the “fold changes relative to vehicle control” value in test [1] is 3.16 fold; in test [2], 0.94; in test [3], 1.02; in [4], 1.1.

Regarding `NCCOCCOCC(=O)Nc1nc2ncc(CNc3ccc(C(=O)NC(CCC(=O)O)C(=O)O)cc3)nc2c(=O)[nH]1` (stereo not drawn) [compound 6], the “fold changes relative to vehicle control” value is given as 0.4 in [5] (protein S100A8, HeLa); 1.12 in test [6] (setting [11]); 1.05 in test [7] (setting [12]); 0.99 in [8] (protein MFN1, HeLa); 0.8 in test [9] (HeLa, protein GEMIN8); 1.06 in test [10] (protein EIF3K, HeLa).

For the compound `CCCCCCOc1ccc(Cc2cnc(N)nc2N)cc1` [compound 1], the “fold changes relative to vehicle control” value in test [1] was 1.53 fold; in test [2], 0.88; in test [3], 1; in test [4] it was 0.88.

Turning to `Nc1nc2c(c(=O)[nH]1)N(C=O)C(CNc1ccc(C(=O)N[C@@H](CCC(=O)O)C(=O)O)cc1)CN2` (stereo partly drawn) [LEU, leucovorin], the “fold changes relative to vehicle control” value in test [5] (protein S100A8, HeLa) was 0.28; in test [6] (setting [11]), 1.18; in test [7] (setting [12]), 1.29; in [8] (protein MFN1, HeLa), 0.81; in [9] (HeLa, protein GEMIN8) it was 0.97; in test [10] (protein EIF3K, HeLa), 0.94.

Consider `NCCCNc1ccc(C(=O)NC(CCC(=O)O)C(=O)O)cc1` (stereo not drawn) [compound 7], for which the “fold changes relative to vehicle control” value in test [5] (protein S100A8, HeLa) is 0.26; in test [6] (setting [11]) it was 1.2; in test [7] (setting [12]) it was 0.76; in [8] (protein MFN1, HeLa), 1.02; in test [9] (HeLa, protein GEMIN8), 0.86; in test [10] (protein EIF3K, HeLa), 1.1.

As for `Nc1nc2[nH]cc(CCc3ccc(C(=O)N[C@@H](CCC(=O)O)C(=O)O)cc3)c2c(=O)[nH]1` [PTX, pemetrexed], the “fold changes relative to vehicle control” value amounted to 0.34 in test [5]; 1.27 in test [6]; 0.97 in [7]; 0.89 in test [8]; 0.97 in test [9]; 0.97 in [10].

For the compound `Nc1nc2cccc(-c3ccccc3)c2n1Cc1ccc(Cl)c(Cl)c1` [compound 3], the “fold changes relative to vehicle control” value in test [1] is 0.85 fold; in test [2], 1.07; in test [3], 0.88; in test [4], 0.86.
